According to patent US8853194B2, “Sterol derivatives and their synthesis and use” (priority 2009, dated 2014):
“And” between values parts separate entries of the source, which are not always exact repeats. Identical values can stand only once. Like-named read-outs stand apart in the source and are kept apart here.

Tests used:
Caspase 8 = conditions: 2.0 μg, HepG2 cells
Method: (§1) 2.1.1 HepG2 cells were digested by trypsin in the cell culture medium. The resulting mixture (6000 was centrifuged for 5 minutes at 4° C. to collect the cells. The supernatant was carefully aspirated and discarded. The remains were washed once with PBS, added to lysate (100 μl/2×10^6 cells); and then, after resuspending the precipitation, ice cracked for 15 minutes.
(§2) 2.1.2 The resulting mixture (16000 g) was centrifuged at 4° C. for 15 minutes.
(§3) 2.1.3 The supernatant was transferred into a centrifugal tube that was pre-cooled by ice bath.
(§4) 2.2.3 Incubating at 37° C. for 120 minutes, detecting Caspase 3 with A405;
(§5) 2.2.4 Adding Ac-IETD-PNA (2 mM) and Ac-LEHD-PNA (2 mM), respectively, for detecting Caspase 8, 9

Caspase 9 = conditions: 2.0 μg, HepG2 cells
Method: as §1, §2, §3, §4, §5

ICR mice = assay: Intraperitoneal injection LD50 for mouse (KORBER's method); format: in vivo; conditions: for Animal deaths: 10 mice, in 7 days
Method: I. Experiment Item: Intraperitoneal injection LD50 for mouse (KORBER's method)
ICR mice (SPF grade), with a weight range of 18-22 g, provided by Vital River Laboratories (VRL) in Beijing, China, were used. There were 5 treatment groups in total, wherein 2000 mg/kg was the highest dose, and the others decreased to 0.8 times, i.e. 1600 mg/kg, 1280 mg/kg, 1024 mg/kg and 819.2 mg/kg. The mice were randomly divided into groups. Each group had 10 mice with half male and half female. Each mouse was introperitoneal injected (0.2 ml/10 g. Observed 3-7 days, a variety of animal responses and the amount of dead mice in each group were recorded. LD50 and confidence limits were calculated by the modified Karber method(Korbor) according to the mortality rate of animals in each group.

Caspase 3 = conditions: 2.0 μg, HepG2 cells, A405
Method: as §1, §2, §3
2.2.1 Took out pNA and a suitable amount of Ac-DEVD-PNA (2 mM), put them on the ice bath for later use;
as §4

mouse sarcoma cells S180 = test system: mouse sarcoma cells S180
Method: (§6) Ascites mice S180 and H22 that had been vaccinated 7 days were sacrificed by cervical, from which ascites were obtained under sterile conditions respectively; the obtained ascites were washed twice with culture medium RPMI1640, and prepared to a 2×10^7/ml suspension in sterile physiological saline. The suspension of cell S180 was inoculated subcutaneously in the right axillas of 40 mice (0.1 ml/mouse) to produce solid tumor models; while the suspension of cell H22 was inoculated in abdominal cavities of 40 mice (0.2 ml/mouse) by conditional means under sterile conditions to produce ascites tumor models.
(§7) 90 mice were randomly divided into 9 groups of 3 types, wherein the first type group was a normal control group, the second type groups were S180 solid tumor groups including a positive (cyclophosphamide) control group, a negative control group, a low dose group and a high dose group, and the third type groups were H22 ascites groups including a positive (cyclophosphamide) control group, a negative control group, a low dose group and a high dose group. There were 10 mice in each group. The experiment was repeated for three times.
(§8) […], the negative control group was injected same volume of corn oil, and the positive control group was injected cyclophosphamide injection solution with the dose of 0.02 g/(Kg.d). The used injection volume was 0.1 ml/mouse and the injection was given as intraperitoneal injection every other day for 15 days. During the 15 days, general activities, fur, feces, etc. of the mice were daily observed. 24 hours after the last administration, mice that had been inoculated subcutaneously with S180 were sacrificed by cervical, from which tumors, thymus and spleen were taken out. After the last administration, mice that had been inoculated in abdominal cavities with H22 were conventionally bred continually, weighted and observed the survival time every day until all the mice in the negative group were dead.
(§9) After finishing the administration in all mice in the solid tumor group, the mice were sacrificed and their spleens and livers were weighed by electronic balance. The spleen index was equivalent to the spleen weight (mg) of mice in each group divided by the weight of the mice, while the liver index was equivalent to the liver weight […] divided by the weight (g) of the mice.
On the next day after drug withdrawal, the mice in the solid-tumor […] group were weighed and sacrificed by cervical, wherein the serum was collected by eye bleeding for later use in subsequent experiments. Tumor tissues were dissected and weighed by electronic balance. The tumor inhibition rate was calculated as follows. Tumor Inhibition Rate(%)=[(mean tumor weight of negative control group−mean tumor weight of treatment group)/mean tumor weight of control group]×100%

Bcl-2 = conditions: tumor tissue, ratio to β-actin, n=3
Method: Detecting the activity of tumor cells VEGF, P53, P21, Bcl-2 (taking β-Actin as an internal reference)
Using Protein Electrophoresis (Western Blot) Method
A bean sized tumor tissue dissected previously was shredded and put into a pre-cooled tissue grinder. 400 μl tissue lysis solution was added. After 10 minutes carefully grinding, the mixture was transferred into a 1.5 ml centrifugal tube, and then, after intensely vortexing the tube for 15 seconds, the mixture was placed on ice for 10 minutes and repeatedly oscillated. After centrifuging 20 minutes (12000 rpm), the supernatant was collected, transferred into a pre-cooled Eppendorf tube, and then separately charged and frozen stored at −80° C. for detecting the activity level of various antibodies.
3.4.3 Reaction with the first antibody: The first antibody was diluted by TBST solution at a ratio of 1:200, and then reacted with the PVDF film at 4° C. for a night. In the next day, after balanced at room temperature for one hour, the reaction mixture was washed with TBST for 3 times.

mouse hepatoma cells H22 = test system: mouse hepatoma cells H22
Method: as §6, §7, §8
24 hours after the inoculation of ascites, the weight and the amount of abdominal circumference of the mice in the groups of ascites models were measured. The drug administration and breeding were continued according to different groups, the weight and the abdominal circumference were measured daily until one day before death. The weight increase (g) and abdominal-circumference increase (cm) were calculated. The experiment started on the day of tumor inoculation and ended on the day when all the mice in the negative control group were dead; the time of deaths were recorded, and the survival extending rate was calculated. Survival Extending Rate(%)=[(mean survival days of treatment group−mean survival days of negative control group)/mean survival days of control group]×100%
as §9

[1] = from LD50 and anti-tumor dose in mice
Source text: I. Experiment Item: the anti-tumor therapeutic index of CL168

[2] = mice, intraperitoneal injection, modified Karber method
[3] = S180 sarcoma mice, low dose 16 mg/kg i.p. every other day for 15 days
[4] = H22 ascites mice, low dose 16 mg/kg i.p. every other day for 15 days

SMILES: CC(C)CCC[C@@H](C)[C@H]1CC[C@@H]2[C@]1(C)CC[C@H]1[C@]23C=C[C@]2(CC(=O)CC[C@]12C)OO3 [CL168-6, 5α,8α-cyclicobioxygen-6-cholesten-3-one]
- OD value of Caspase8 (Caspase 8; 24 h): 0.413
- OD value of Caspase8 (Caspase 8; 48 h): 0.408
- OD value of Caspase9 (Caspase 9; 24 h): 0.156
- OD value of Caspase9 (Caspase 9; 48 h): 0.146
- Animal deaths (ICR mice; 819.2 mg/kg i.p.): 0
- Animal deaths (ICR mice; 1024 mg/kg i.p.): 1
- Animal deaths (ICR mice; 1280 mg/kg i.p.): 3
- Animal deaths (ICR mice; 1600 mg/kg i.p.): 6
- Animal deaths (ICR mice; 2000 mg/kg i.p.): 8
- Death in the 12 hours after administration (ICR mice; 819.2-2000 mg/kg i.p., first 12 hours): no death appeared
- LD50 (ICR mice; [2]): 1479.11 mg/kg and 1479 mg/kg
- LD50 95% confidence interval (ICR mice; [2]): 1304.19 to 1677.49 mg/kg
- OD value of Caspase3 (Caspase 3; 24 h): 0.190
- OD value of Caspase3 (Caspase 3; 48 h): 0.185
- Tumor weight (g) (mouse sarcoma cells S180; S180 sarcoma mice, high dose 32 mg/kg i.p. every other day for 15 days): 0.629 ± 0.133^(3) g
- Tumor inhibition rate (%) (mouse sarcoma cells S180; S180 sarcoma mice, high dose 32 mg/kg i.p. every other day for 15 days, 32 mg/kg): 54.58%
- Tumor weight (g) (mouse sarcoma cells S180; [3]): 0.771 ± 0.407^ g
- Weight increase (mouse sarcoma cells S180; [3]): 6.71 ± 1.22 g
- Tumor inhibition rate (%) (mouse sarcoma cells S180; S180 sarcoma mice, low dose 16 mg/kg i.p. every other day for 15 days, 16 mg/kg): 44.33%
- Liver index (100 g/g) (mouse sarcoma cells S180; mouse, in vivo, ip, 16 mg/kg): 4.45 ± 0.19 100 g/g
- Spleen index (mg/g) (mouse sarcoma cells S180; mouse, in vivo, ip, 16 mg/kg): 5.32 ± 0.68^(2)(4) mg/g
- Liver index (100 g/g) (mouse sarcoma cells S180; mouse, in vivo, ip, 32 mg/kg): 4.38 ± 0.13 100 g/g
- Spleen index (mg/g) (mouse sarcoma cells S180; mouse, in vivo, ip, 32 mg/kg): 5.34 ± 0.73^(2)(4) mg/g
- Weight increase (mouse sarcoma cells S180; mouse, in vivo, ip, 32 mg/kg): 6.00 ± 1.11 g
- relative expression level of bcl-2 (Bcl-2): 0.75±0.04
- Abdominal circumference increase (cm) (mouse hepatoma cells H22; H22 ascites mice, high dose 32 mg/kg i.p. every other day for 15 days): 2.32 ± 0.71^(2)(4) cm
- Abdominal circumference increase (cm) (mouse hepatoma cells H22; [4]): 2.84 ± 0.34^(2)(3) cm
- Survival extending rate (%) (mouse hepatoma cells H22; [4]): 37.11%
- Survival time (day) (mouse hepatoma cells H22; [4]): 13.3 ± 1.77^(4) day
- Weight increase (g) (mouse hepatoma cells H22; [4]): 7.16 ± 1.39^(4) g
- Liver index (100 g/g) (mouse hepatoma cells H22; mouse, in vivo, ip, 16 mg/kg): 4.9 ± 0.24^(1)(4) 100 g/g
- Spleen index (mg/g) (mouse hepatoma cells H22; mouse, in vivo, ip, 16 mg/kg): 6.53 ± 1.29^(2)(4) mg/g
- Liver index (100 g/g) (mouse hepatoma cells H22; mouse, in vivo, ip, 32 mg/kg): 5.19 ± 0.64^(2)(4) 100 g/g
- Spleen index (mg/g) (mouse hepatoma cells H22; mouse, in vivo, ip, 32 mg/kg): 5.76 ± 0.96^(2)(4) mg/g
- Survival extending rate (%) (mouse hepatoma cells H22; mouse, in vivo, ip, 32 mg/kg): 51.55%
- Survival time (day) (mouse hepatoma cells H22; mouse, in vivo, ip, 32 mg/kg): 14.7 ± 1.41^(4) day
- Weight increase (g) (mouse hepatoma cells H22; mouse, in vivo, ip, 32 mg/kg): 5.05 ± 1.88^(4) g
- anti-tumor therapeutic index (TI) [1]: 49.3
- anti-tumor therapeutic index (TI) ([1]; listed as CL168): about 49.3
